Laboratory results: patent publication US9593305B2, “Differentiation of pluripotent stem cells” (Janssen Biotech, Inc., priority 2008, dated 2017)

How the values were obtained:
[1] = system: H1 human embryonic stem cells; experiment: Step-wise differentiation, FACS for CXCR4 after step 1 (Example 16); type: cell-based; details: 100 ng/ml GDF-8 with compound on first day, compared to activin A and Wnt3a
Method: (§1) The assay was initiated by aspirating the culture medium from each well and adding back an aliquot (0.5 ml) of test medium. Test conditions for the first step of differentiation were conducted over a three-day period, feeding daily by aspirating and replacing the medium from each well with fresh test medium. On the first day of assay, 100 ng/ml activin A (PeproTech; Cat #120-14) or 100 ng/ml GDF-8 (R&D Systems, Cat #788-G8) was added to respective assay wells where each growth factor was diluted into RPMI-1640 medium (Invitrogen; Cat #: 22400) with 2% Albumin Bovine Fraction V, Fatty Acid Free (FAF BSA) (Proliant Inc. Cat #: SKU 68700), and 20 ng/ml Wnt3a (R&D Systems; Cat #1324-WN/CF). On the second day of assay, 100 ng/ml activin A or 100 ng/ml GDF-8 was diluted into RPMI-1640 medium supplemented with 2% FAF BSA without Wnt3a. In some test samples using GDF-8, Wnt3a was replaced with a small molecule compound, added only on the first day of definitive endoderm differentiation. These small molecules included Compound 19 (2.5 μM in assay), Compound 202 (2.5 μM in assay), Compound 40 (2.5 μM in assay), or a commercially available GSK3 inhibitor BIO (0.5 μM in assay) (EMD Chemicals, Inc.; Cat #361550). At the conclusion of the first step of differentiation, cells from some wells were harvested for flow cytometry analysis to evaluate levels of CXCR4, a marker of definitive endoderm formation. Additional wells were harvested for RT-PCR analysis to measure other markers of differentiation.
Cells for FACS analysis were blocked in a 1:5 solution of 0.5% human gamma-globulin (Sigma; Cat#G-4386) in PBS (Invitrogen; Cat #14040-133): BD FACS staining buffer—BSA (BD; Cat #554657) for 15 minutes at 4° C. Cells were then stained with antibodies for CD9 PE (BD; Cat #555372), CD99 PE (Caltag; #MHCD9904) and CXCR4 APC(R&D Systems; Cat#FAB 173A) for 30 minutes at 4° C. After a series of washes in BD FACS staining buffer, the cells were stained for viability with 7-AAD (BD; Cat #559925) and run on a BD FACSArray. […]

[2] = system: H1 human embryonic stem cells; experiment: Step-wise differentiation, high content analysis of SOX17, cell number, insulin, glucagon (Example 16); type: cell-based; details: GDF-8 with compound in step 1, relative to activin A and Wnt3a
Method: as §1
Step 5 of the differentiation protocol was carried out over seven days in DMEM-high glucose with 0.1% Albumax, 0.5× Insulin-Transferrin-Selenium, and 1 μM Alk 5 inhibitor. […]
Imaging was performed using an IN Cell Analyzer 1000 (GE Healthcare) utilizing the 51008bs dichroic for cells stained with Hoechst 33342 and Alexa Fluor 488. […] Segmentation for the nuclei was determined based on gray-scale levels (baseline range 100-300) and nuclear size. Averages and standard deviations were calculated for each replicate data set. […]

O=C1Nc2cc(Br)ccc2/C1=C1/Nc2ccccc2/C1=N\O [GSK3 inhibitor BIO, reference compound]
percentage of CXCR4 positive cells after step 1 [1]: equivalent or slightly higher percentage of CXCR4 positive cells | relative cell numbers recovered through differentiation step 5 [2]: decrease in cell number
